{"source": "patent US20170281651A1", "about": "“CONCOMITANT ADMINISTRATION OF GLUCOCORTICOID RECEPTOR MODULATORS AND CYP3A OR STEROIDOGENESIS INHIBITORS” (Corcept Therapeutics, Inc., priority 2017, published 2017)", "assay_type_in_all_cases": "in vivo, human", "key": {"[1]": {"assay": "Example 3: safety (adverse events, laboratory tests, vital signs, ECG)", "description": "A single dose of ketoconazole was administered on Day −1."}, "[2]": {"assay": "Example 1: effect of oral ketoconazole (400 mg OD or 200 mg BID) on plasma pharmacokinetics of a 300 mg single dose of mifepristone, fasted", "conditions": "for Cmax / AUC(0-t) / half-life / Tmax: male, human, plasma, oral; for AUC(0-t): read-out: AUCt (AUC0-24 hours, mean); for half-life: read-out: T1/2 (mean) (converted); for Tmax: read-out: Tmax (median)", "excerpt": "This study was an open-label study in healthy male subjects.\nHealthy male volunteers between the ages of 18 to 45 years of age with a body mass index (BMI) ranging between 19 and 32 kg/m2 and a weight of at least 60 kg (132 lbs) were enrolled. Subjects had no clinically significant abnormal findings on the physical examination, ECG, blood pressure, heart rate, medical history, or clinical laboratory results during screening. The QTc interval at screening was less than 450 msec.\n(§1) In cohort 1, six subjects received ketoconazole 400 mg OD for 14 days.\nSubjects remained in the clinic on Days 2 and 3 to receive 400 mg OD oral ketoconazole fasted, and for safety evaluation and collection of blood pharmacokinetic (PK) samples. Subjects were discharged from the clinic on Day 4 following administration of 400 mg OD oral ketoconazole fasted, and returned to the clinic the mornings of Days 5 through 13 to receive 400 mg OD oral ketoconazole fasted.\n(§2) In cohort 2, six subjects received ketoconazole 200 mg BID for 14 days. […] All 12 subjects completed the study. Cohort 2 subjects participated in a Screening visit to assess eligibility and a check-in Day (Day −1) during which eligibility was re-confirmed. […] The evening of Day 1, subjects received 200 mg oral ketoconazole. Subjects remained in the clinic on Days 2, 3 and 4 to receive 200 mg BID oral ketoconazole, and for safety evaluation and collection of blood pharmacokinetic (PK) samples. Subjects were discharged from the clinic on Day 4 following evening administration of 200 mg oral ketoconazole, and returned to the clinic the morning and evening of Days 5 through 13 to receive 200 mg BID oral ketoconazole. Morning doses of ketoconazole on Days 0-13 were administered in the fasted state.\n(§3) Subjects in both cohorts returned to the study center on Day 15 for safety monitoring, and completion of the Termination Visit procedures, followed by discharge from the study. Safety was assessed by spontaneously reported adverse events, physical examinations, and routine clinical laboratory tests. To the extent possible, any adverse events deemed study drug-related and that were ongoing at the time of discharge from the study were followed-up to resolution or until a determination is made that the unresolved event was stable.\nDescriptive statistics (count, mean, median, standard deviation, minimum, maximum, and % coefficient of variation) were provided. […] Comparisons with previous study data were made."}, "[3]": {"assay": "Example 2: safety (adverse events, physical examinations, laboratory tests)", "description": "This was an open-label study in healthy male subjects. […] The 400 mg single dose of ketoconazole was given to all subjects on day 8.\nSafety was assessed by spontaneously reported adverse events, physical examinations, and routine clinical laboratory tests. Adverse event data were tabulated. Physical findings and laboratory test results were listed by subject."}, "[4]": {"assay": "Example 1: safety (adverse events, laboratory tests, ECG)", "description": "as §1, §2, §3"}, "[5]": {"assay": "Example 3: Phase 1 study of ketoconazole 200 mg twice daily with mifepristone 600 mg once daily with food, plasma PK incl. cross-study comparison"}, "[6]": {"conditions": "C2/C1 (Keto 200 mg BID vs 400 mg OD)"}, "[7]": {"conditions": "MIFE 300 mg single dose fasted + Keto 200 mg BID (Cohort 2)"}, "[8]": {"conditions": "MIFE 300 mg single dose fasted + Keto 400 mg OD (Cohort 1)"}, "[9]": {"conditions": "mifepristone 300 mg single dose with ketoconazole for 14 days"}, "[10]": {"conditions": "Test: Day 17 600 mg mifepristone OD + 200 mg Ketoconazole BID, Reference: Day 12 600 mg mifepristone OD"}, "[11]": {"conditions": "Test: Present Study Day 17 600 mg mifepristone OD + 200 mg Ketoconazole BID, Reference: Historic Study Day 7 1200 mg mifepristone OD alone, after 34% fat meal"}}, "note": "“And” between values parts separate entries of the source, which are not always exact repeats. Equal entries are not always repeated. Where two headings read alike, the source gives them in different places.", "data": [{"smiles": "CC#C[C@]1(O)CC[C@H]2[C@@H]3CCC4=CC(=O)CCC4=C3[C@@H](c3ccc(N(C)C)cc3)C[C@@]21C", "note": "[mifepristone, 11β-(4-dimethylaminophenyl)-17β-hydroxy-17α-(1-propynyl)-estra-4,9-dien-3-one]", "values": [{"measurement": "subjects reporting at least one TEAE", "setting": "[1]; during the mifepristone/ketoconazole treatment period", "value": 57.1, "unit": "%"}, {"measurement": "subjects reporting at least one TEAE", "setting": "[1]; during treatment with mifepristone alone (600 mg once daily)", "value": 55.6, "unit": "%"}, {"measurement": "subjects with elevated laboratory test results reported as drug-related TEAEs", "setting": "[1]; liver enzymes (one subject), creatinine (two subjects), from Day 14", "value": "Three subjects"}, {"measurement": "effects on hematology or urinalysis parameters, vital signs, or ECGs", "setting": "[1]; multiple-dose mifepristone with or without multiple-dose ketoconazole", "value": "No clinically significant effects"}, {"measurement": "deaths or SAEs", "setting": "[1]; whole study", "value": "No deaths or SAEs"}, {"measurement": "severe TEAEs", "setting": "[1]; whole study", "value": "No severe TEAEs"}, {"measurement": "Mean Ratio AUCtotal (AUCinf, geometric mean ratio)", "setting": "[2]; [6]", "value": 1.05}, {"measurement": "Mean Ratio Cmax (geometric mean ratio)", "setting": "[2]; [6]", "value": 1.15}, {"measurement": "Terminal half-life Cohort 2 versus Cohort 1", "setting": "[2]; Keto 200 mg BID vs 400 mg OD", "value": "approximately the same"}, {"measurement": "Tmax Cohort 2 versus Cohort 1", "setting": "[2]; Keto 200 mg BID vs 400 mg OD", "value": "shorter"}, {"measurement": "AUCtot (AUCtotal, mean)", "setting": "[2]; [7]", "value": 130925, "unit": "ng·h/mL"}, {"measurement": "AUCtot (AUCtotal, mean)", "setting": "[2]; [8]", "value": 116939, "unit": "ng·h/mL"}, {"measurement": "Cmax", "setting": "[2]; [7]", "value": 4140, "unit": "ng/mL"}, {"measurement": "AUC(0-t)", "setting": "[2]; [7]", "value": 40600, "unit": "ng·h/mL"}, {"measurement": "half-life", "setting": "[2]; [7]", "value": 37.4, "unit": "h"}, {"measurement": "Tmax", "setting": "[2]; [7]", "value": 1, "unit": "h"}, {"measurement": "Cmax", "setting": "[2]; [8]", "value": 3400, "unit": "ng/mL"}, {"measurement": "AUC(0-t)", "setting": "[2]; [8]", "value": 38100, "unit": "ng·h/mL"}, {"measurement": "half-life", "setting": "[2]; [8]", "value": 37.1, "unit": "h"}, {"measurement": "Tmax", "setting": "[2]; [8]", "value": 2, "unit": "h"}, {"measurement": "TEAEs considered possibly or probably related to administration", "setting": "[3]; four subjects in Cohort 2 (600 mg)", "value": "dizziness, nausea, vomiting, dry mouth, and rash"}, {"measurement": "SAE", "setting": "[3]; mifepristone 300 or 600 mg OD 8 days + 400 mg ketoconazole Day 8", "value": "No subject experienced an SAE"}, {"measurement": "subjects with at least 1 TEAE", "setting": "[3]; twelve subjects, mifepristone 300 or 600 mg OD 8 days + 400 mg ketoconazole Day 8", "value": 50, "unit": "%"}, {"measurement": "safety and tolerability", "setting": "[4]; 300 mg single-dose fasted with ketoconazole 400 mg OD or 200 mg BID for 14 days, healthy volunteers", "value": "safe and well tolerated"}, {"measurement": "subjects with at least one treatment emergent adverse event (TEAE)", "setting": "[4]; 12 subjects, mifepristone 300 mg single dose with ketoconazole for 14 days", "value": 25, "unit": "%"}, {"measurement": "changes in ECG parameters", "setting": "[4]; mifepristone 300 mg single dose with ketoconazole", "value": "No clinically significant changes"}, {"measurement": "SAE or AE resulting in discontinuation", "setting": "[4]; [9]", "value": "No subject experienced a serious adverse effect (SAE), or an adverse event (AE) that resulted in discontinuation"}, {"measurement": "TEAEs considered by the investigator to be related to the drug", "setting": "[4]; [9]", "value": "No TEAE"}, {"measurement": "exposure as percent of that following the highest labeled dose (1200 mg daily)", "setting": "[5]; 600 mg mifepristone once daily with 200 mg ketoconazole twice daily", "value": "approximately 85%"}, {"measurement": "effect of ketoconazole on exposure (90% CI vs standard 80:125 interval)", "setting": "[5]; Day 17 vs Day 12", "value": "increased"}, {"measurement": "difference of time 0 (pre-dose) plasma concentration", "setting": "[5]; Day 17 vs Day 12, FIG. 2", "value": "~500", "unit": "ng/mL"}, {"measurement": "concentrations on Day 17 compared with Day 12", "setting": "[5]; Day 17 with 200 mg ketoconazole twice daily, Day 12 mifepristone alone", "value": "higher"}, {"measurement": "AUC0-24 Ratio % Test/Reference (geometric mean ratio)", "setting": "[5]; [10]", "value": 138.01, "unit": "%"}, {"measurement": "Cmax Ratio % Test/Reference (geometric mean ratio)", "setting": "[5]; [10]", "value": 127.59, "unit": "%"}, {"measurement": "AUC0-24 Ratio % Test/Ref (cross-study, geometric mean ratio)", "setting": "[5]; [11]", "value": "87.27% and 87%"}, {"measurement": "Cmax Ratio % Test/Ref (cross-study, geometric mean ratio)", "setting": "[5]; [11]", "value": 84.64, "unit": "%"}, {"measurement": "AUC0-24 Ratio % Test/Ref (cross-study, geometric mean ratio)", "setting": "[5]; Test: Present Study Day 17 600 mg mifepristone OD + 200 mg Ketoconazole BID, Reference: Historic Study Day 7 1200 mg mifepristone OD alone, after 34% fat meal, listed as Mifepristone", "value": 87.27, "unit": "%"}, {"measurement": "exposure less than that of 1200 mg mifepristone in the absence of ketoconazole", "setting": "[5]; mifepristone 600 mg co-administered with ketoconazole", "value": "13-15%"}]}]}
